The text below walks through data of patent publication US8680076B2, “Methods of treatment, improvement and prevention using haloaryl substituted aminopurines” (Signal Pharmaceuticals, LLC, priority 2010, dated 2014).

The structures appear in SMILES notation. “Also recorded” adds a separate entry of the source.

For series [1], the system named is phospho c-Jun (JNK) in human skin. As to the kind of experiment: UVB-irradiated human skin, phospho c-Jun IHC (3-way crossover study). It is filed as in vivo. The settings on record: for median subjective score of phospho c-Jun: scale 0-4, placebo score 4. The method, then:
The inhibitory effect of JNKi-1 on JNK was evaluated by assessing the status of the downstream substrate c-Jun (“cJun”) and phospho-c-Jun (or “p-cJun”) following UV irradiation of human skin.
The study was designed as randomized, double blind, placebo controlled, multiple dose, 3-way crossover study. Fifteen subjects were randomized to one of 3 sequences (5 subjects per sequence) as outlined below (see Table 3). There was a 7-day to 10 day washout period (no more than 14 days) from the last dose of the previous period to the first dose of the next period.
Fifteen patients enrolled, 14 completed the study and were included in the PD and PK analyses; all were healthy Caucasian male volunteers with Fitzpatrick skin type 2. The mean age was […] (20-49 years) and weight was 81 kg (64-96 kg). On the evening of Day-1, patients started fasting (at least an 8-hour fast prior to dosing on Day 1). Subjects received treatment A, B or C in Periods 1 to 3 under fasting conditions in an order based on the randomization scheme. Subjects went through the same procedures (except for the change in treatment) for all 3 periods, with the required washout in between periods. No strenuous activities were permitted during confinement. All efforts were made to keep activities, environment, food, procedures, and schedule between treatment periods identical.
On Day 6, subjects received a 2×MED UV dose to two sites on the buttock. One punch biopsy (approximately 3 mm in diameter by 0.8 mm in depth) was taken from one of the two UV irradiated sites. The punch biopsies were taken at 8 (±5 minutes) hours post UV exposure on Day 6.
Skin specimens from the biopsies was analyzed for phospho c-Jun and total c-Jun using IHC assay. Phospho c-Jun was quantified using a 0-4 subjective grading scales and/or objective scoring using an automated system, i.e. a laser scanning cytometer (LSC), evaluating the integrated intensity of staining measured optically.
Biopsies were analyzed following the procedures described below to evaluate phospho c-Jun and c-Jun expression using IHC assay. The method employed to assess JNK activation was a two antibody IHC assay that employed a primary antibody, directed against the target, and a secondary antibody conjugated with a chromogenic enzyme. Thus, the method was a two-step immunohistochemical assay designed to interrogate the target, c-Jun and phospho c-Jun. Any changes in JNK activity were measurable in the amounts of these target molecules, c-Jun and phospho c-Jun. The secondary antibody-reporter conjugate deposited a red color when incubated with the substrate reaction mix, thus marking the location of the primary antibody target complex. The red color was then recorded with standard bright-field illumination using a Nikon microscope. The microscope images were then photographed and electronic images were scored (blinded) by three independent and trained scorers using the following guidelines. A score of 0 indicated staining of 0-19% of the epithelial keratinocyte nuclei; a score of 1 indicated staining of 20-39% of the epithelial keratinocyte nuclei; a score of 2 indicated staining of 40-59% of the epithelial keratinocyte nuclei; a score of 3 indicated staining of 60-79% of the epithelial keratinocyte nuclei; and a score of 4 indicated staining of 80-100% of the epithelial keratinocyte nuclei. FIG. 21 depicts representative immunostaining for the respective scores.
For each tissue, a count of nuclei in the epithelial layer was obtained. All phospho c-Jun or c-Jun positive nuclei were counted as well as their integral (intensity). A score was calculated for each: score=(p-cJun or cJun positive nuclei×average Intensity)/Total nuclei.

Series [2] concerns dermal fibroblasts from SSc patients. As to the kind of experiment: Expression of extracellular matrix proteins in dermal fibroblasts from SSc patients (real-time PCR, SirCol). It is filed as cell-based, human. The protocol: Using fibroblasts isolated from skin biopsies from human systemic sclerosis (SSc) patients, an in vitro study was performed to evaluate whether the selective JNK inhibitor Compound JNKi-1 affects the expression of key extracellular matrix proteins.
Dermal fibroblasts from two SSc patients were treated for 24 hours (hr) with Compound JNKi-1 at concentrations from 0.1 μM to 10 μM (0.5% DMSO/99.5% cell culture media). To study the effect of Compound JNKi-1 on growth factor-induced collagen expression, recombinant transforming growth factor beta (TGF-β) (final concentration of 10 ng/mL) or platelet-derived growth factor-BB (PDGF-BB) (final concentration of 40 ng/mL) were added to cells 2 hr after the addition of JNK-inhibitor Compound JNKi-1 for 24 hr. The expression of collagen proteins was analyzed by SirCol assay. The messenger ribonucleic acid (mRNA) levels of extracellular proteins were measured by real-time polymerase chain reaction (PCR). The β-actin mRNA was used as internal control for the measurement of Collagen 1a1 mRNA using PCR. Fibroblast proliferation assay was performed in the presence or absence of 1 μM Compound JNKi-1 for 24 hr with the (3-(4,5-Dimethylthiazol-2-yl)-2,5-diphenyltetrazolium bromide) (MTT) assay.
The isolation of fibroblasts from human SSc patients and culture conditions used in this study have been previously described (Akhmetshina A, Dees C, Pileckyte M, Maurer B, Axmann R, Jüngel A, et al., Dual inhibition of c-abl and PDGF receptor signaling by dasatinib and nilotinib for the treatment of dermal fibrosis, FASEB J. 2008; 22(7):2214-22). Fibroblast cultures were obtained from skin biopsies of SSc patients. […] Biopsies from SSc patients were taken from involved skin of the forearm. After enzymatic digestion of the skin biopsies with Dispase II, fibroblasts were cultured in DMEM/F-12 containing 10% heat inactivated fetal calf serum (FCS), 100 U/mL penicillin, 100 μg/mL streptomycin, 2 mM L-glutamine and 2.5 μg/mL amphotericin B (all Invitrogen, Karlsruhe, Germany). Fibroblasts from passages 4-8 were used for the experiments. Data are expressed as mean±standard error of the mean (SEM).

[3] abbreviates: 1 μM, 24 hr, compared to mock-treated fibroblasts.

Consider `O[C@H]1CC[C@H](Nc2ncc3nc(Nc4c(F)cc(F)cc4F)n([C@H]4CCOC4)c3n2)CC1` [JNKi-1, 4-((9-((3S)-tetrahydro-3-furanyl)-8-((2,4,6-trifluorophenyl)amino)-9H-purin-2-yl)amino)-trans-cyclohexanol], for which, in series [1] (75 mg QD x 6 days), the “patients with reduced phospho c-Jun, subjective scoring” value amounted to 57% and the “median subjective score of phospho c-Jun” value amounted to 3. Further, the “patients with reduced phospho c-Jun, subjective scoring” value in series [1] (75 mg QD x 6 days, 2xMED UVB, biopsy 8 hours post UV) is 8/14. Besides, the “frequency of high phospho c-Jun subjective scores” value in series [1] (75 mg and 200 mg vs placebo) was “fewer subjects had high p-cJun scores; also recorded: fewer patients had high scores”. Moreover, the “phospho c-Jun by laser scanning cytometry (LSC) analysis” value in series [1] (75 mg or 200 mg) is listed as “Decrease in phospho c-Jun was confirmed”. In series [1] (75 mg vs. placebo), the “odds ratio, phospho c-Jun scores 0, 1, 2 vs. scores 3, 4 (logistic regression)” value is given as 10.96. In series [1] (200 mg QD x 6 days), the “patients with inhibited phospho c-Jun, subjective scoring” value was determined as 78% and the “median subjective score of phospho c-Jun” value is on record as 1. The “patients with inhibited phospho c-Jun, subjective scoring” value in series [1] (200 mg QD x 6 days, 2xMED UVB, biopsy 8 hours post UV) is listed as 11/14. Besides, in series [1] (200 mg vs. placebo), the “odds ratio, phospho c-Jun scores 0, 1, 2 vs. scores 3, 4 (logistic regression)” value was 41.89. Moreover, the “elevation of phospho c-Jun induced by the UVB irradiation” value in series [1] (oral, about 75 mg to about 200 mg, in a majority of patients) is “partially or completely inhibited”. The “phospho c-Jun immunostaining, percentage of positive epithelial nuclei, Patient 15” value in series [1] (versus placebo) is given as “significantly decreased”. The “expression of extracellular matrix proteins (in words)” value in series [2] (0.1 μM to 10 μM, 24 hr) was “reduced expression; also recorded: dose-dependently reduced”. Besides, in series [2] (setting [3]), the “reduction of col 1a1 mRNA level” value is recorded as 71±11%, the “reduction of col 1a2 mRNA level” value is 61±13% and the “reduction of fibronectin-1 mRNA level” value turned out to be 55±14%. In addition, in series [2] (1 μM, compared to control), the “reduction of collagen protein in the supernatant” value worked out at 21±7%. The “concentration at which maximal effects were observed” value in series [2] (tested 0.1 μM to 10 μM, 24 hr) came to 1 µM.
